This passage reports Activity and EC50 results from ChEMBL document CHEMBL1131558, “Synthesis of Dolastatin 15 mimetic peptoids” (1998).

≈ marks a conversion by molar mass, not a printed value. Calls of active or inactive are those of the source. No cut-off for these calls is given here. Square brackets hold non-standard residues; d marks the D form. Peptide text beside a SMILES is read from it. * marks the point of attachment. X1 = COC1=CC(=O)N(C(=O)[C@@H](O*)C(C)C)[C@H]1Cc1ccccc1; NMe2Val = CC(C)[C@@H](C(=O)*)N(C)C; NMeV = CN[C@H](C(=O)O)C(C)C

The species named for one test is Homo sapiens. The experiment in a line: Anticancer activity was determined by the inhibition of colony formation in liquid culture of KB human epidermoid carcinoma cells up to the concentration 31.6 ug/mL; NI means No inhibition. In kind it is functional.
The subject of a further test is L1210. The experiment in a line: Anticancer activity was determined by the inhibition of colony formation in liquid culture of L-1210 leukemia cells up to the concentration 31.6 ug/mL; NI means No inhibition. The note with it: Mus musculus. Type of test: functional, cell-based.
In a further test the test system is LNCaP. Nature of the test: Anticancer activity was determined by the inhibition of colony formation in liquid culture of up to the concentration 31.6 ug/mL; NI means No inhibition. Type of test: functional, cell-based. The note with it: Homo sapiens.
The test system of another test is SK-OV-3. Nature of the test: Anticancer activity was determined by the inhibition of colony formation in liquid culture of SK-OV-3 ovarian cancer cells up to the concentration 31.6 ug/mL; NI means No inhibition. In kind it is functional, cell-based. The note with it: Homo sapiens.
For a further test, the system named is P388. The experiment in a line: Anticancer activity against lymphocytic leukemia P388 cells was determined. In kind it is functional. The note with it: Mus musculus, read-out: ED50 (the source's name).

Regarding `CC(=O)N(CC(=O)N(CC(=O)N1CCC[C@H]1C(=O)N1CCC[C@H]1C(=O)N(CC(=O)N(CC(=O)N(C(C)C)C(C)C)C(C)C)C(C)C)C(C)C)Cc1ccccc1`, the outcome in the test filed under Homo sapiens, in the test on L1210, in the test on LNCaP and with SK-OV-3 was inactive.

Consider `CC(=O)N(CC(=O)N(CC(=O)N1CCCC1C(=O)N1CCC[C@H]1C(=O)N(CC(=O)N(CC(=O)N(C(C)C)C(C)C)C(C)C)C(C)C)C(C)C)Cc1ccccc1` (single isomer, unassigned), for which the outcome in the test filed under Homo sapiens, in the test on L1210, in the test on LNCaP and with SK-OV-3 was inactive.

`CC(=O)N(CC(=O)N(CC(=O)N1CCC[C@@H]1C(=O)N1CCC[C@@H]1C(=O)N(CC(=O)N(CC(=O)N(C(C)C)C(C)C)C(C)C)C(C)C)C(C)C)Cc1ccccc1` (single isomer, unassigned): the result in the test listed under Homo sapiens, with L1210, in the test with LNCaP and in the test with SK-OV-3 was inactive.

On to `CC(=O)N(CC(=O)N(CC(=O)N1CCC[C@@H]1C(=O)N1CCC[C@@H]1C(=O)N(CC(=O)N(CC(=O)N(C(C)C)C(C)C)C(C)C)Cc1ccccc1)C(C)C)Cc1ccccc1` (single isomer, unassigned), for which the result in the test filed under Homo sapiens, in the test with L1210, in the test on LNCaP and in the test with SK-OV-3 was inactive.

As to `CC(=O)N(CC(=O)N(CC(=O)N1CCC[C@@H]1C(=O)N1CCC[C@@H]1C(=O)N(CC(=O)N(CC(=O)O)C(C)C)C(C)C)C(C)C)Cc1ccccc1` (single isomer, unassigned), the result in the test filed under Homo sapiens, in the test on L1210, in the test on LNCaP and in the test on SK-OV-3 was inactive.

On to `CC(=O)N(CC(=O)N(CC(=O)N1CCC[C@H]1C(=O)N1CCCC1C(=O)N(CC(=O)N(CC(=O)N(C(C)C)C(C)C)C(C)C)C(C)C)C(C)C)Cc1ccccc1` (single isomer, unassigned), for which the result in the test listed under Homo sapiens, in the test on L1210, in the test with LNCaP and with SK-OV-3 was inactive.

In the case of `CC(C)N(CC(=O)N(C(C)C)C(C)C)C(=O)CN(C(=O)[C@H]1CCCN1C(=O)[C@H]1CCCN1C(=O)OCc1ccccc1)C(C)C` (single isomer, unassigned), the result in the test filed under Homo sapiens, with L1210, in the test on LNCaP and in the test on SK-OV-3 was inactive.

Take `CC(C)N(CC(=O)O)C(=O)CN(C(=O)[C@H]1CCCN1C(=O)[C@H]1CCCN1C(=O)CN(C(=O)CNCc1ccccc1)C(C)C)C(C)C` (single isomer, unassigned): the result in the test listed under Homo sapiens, with L1210, with LNCaP and with SK-OV-3 was inactive.

In the case of `COC1=CC(=O)N(C(=O)[C@@H](OC(=O)[C@@H]2CCCN2C(=O)[C@@H]2CCCN2C(=O)[C@H](C(C)C)N(C)C(=O)[C@@H](NC(=O)[C@H](C(C)C)N(C)C)C(C)C)C(C)C)[C@H]1Cc1ccccc1` [DOLASTATIN 15] (NMe2Val-V[NMeV]PP-X1), the EC50 with P388 turned out to be 2.4 ng/mL (≈ 2.87 nM).

Regarding `CC[C@H](C)[C@@H]([C@@H](CC(=O)N1CCC[C@H]1[C@H](OC)[C@@H](C)C(=O)N[C@@H](Cc1ccccc1)c1nccs1)OC)N(C)C(=O)[C@@H](NC(=O)[C@H](C(C)C)N(C)C)C(C)C` [DOLASTATIN-10], the EC50 with P388 came out at 0.1 ng/mL (≈ 0.127 nM).
